Legend:
[1] = Time to emesis and survival after oral administration of pesticide with or without emetic (Example 27, Table 1); format: in vivo, Macaca fascicularis (Cynomolgus monkeys); conditions: for Animals in which emesis took place / Survival number after 14 days: 2 animals
in vivo = conditions: cynomolgus monkey, po
[2] = cited from earlier work
[3] = in vivo; cited from earlier work

| Compound | Animals in which emesis took place ([1]; Malathion only, 500 mg/kg) | Survival number after 14 days ([1]; Malathion only, 500 mg/kg) | LD50 (in vivo) [mg/kg] | Time to emesis ([1]; Parathion only, 200 mg/kg) [h] | Animals in which emesis took place ([1]; Parathion only, 200 mg/kg) | Survival number after 14 days ([1]; Parathion only, 200 mg/kg) | Stability in air [2] | Side effects of known emetic [3] |
| --- | --- | --- | --- | --- | --- | --- | --- | --- |
| CCOC(=O)CC(SP(=S)(OC)OC)C(=O)OCC (stereo not drawn) [Malathion, S-[1,2-di(ethoxycarbonyl)ethyl] dimethyl phosphorothiolothionate] | 1 | 0 | 270 to 400 | – | – | – | – | – |
| CCOP(=S)(OCC)Oc1ccc([N+](=O)[O-])cc1 [Parathion, diethyl 4-nitrophenyl phosphorothionate] | – | – | ~100 | 1 | 1 | 0 | – | – |
| CN1CCc2cccc3c2[C@H]1Cc1ccc(O)c(O)c1-3 [apomorphine] | – | – | – | – | – | – | unstable in air, oxidising readily | may induce protracted vomiting and shock |

— patent US4269820A, “Safeguarded toxic chemical compositions containing effective emesis-inducing S-triazolo-[1,5-α]pyrimidine derivatives” (priority 1977, dated 1981)
